Columns and labels:
[1] = system: healthy, mature C57BL/6 male mice; assay: Object location memory test (recognition of the new location of a known object); format: in vivo; conditions: for dose with maximally expressed stimulating/activating effect on memory: mice, intragastric
Source text: Method. In order to study the action of substances on the memory of animals in which there had been no prior destruction of neurons, we used the test of recognition of the new location of a known object (“Object location memory test”, B. Kolb, K. Buhrmann, R. McDonald and R. Sutherland, Cereb. Cortex, 6 (1994), pp 664-680; D. Gaffan, Eur. J. Neurosci., 4 (1992), pp. 381-388; T. Steckler, W. H. I. M. Drinkenburgh, A. Sahgal and J. P. Aggleton, Prog. Neurobiol., 54 (1998), pp. 289-311). This Object Recognition Test is used to study memory. It provides a reliable, easy-to-use assessment tool for analyzing the effects of test compounds on memory in animals. The test can be applied to normal healthy animals (controls), as well as to animals that are models of various neurodegenerative diseases.
Experiments were performed on healthy, mature C57BL/6 male mice aged 3-5 months and weighing 20-24 g. Male mice were used to exclude any possible negative effects resulting from hormonal changes associated with […] in female mice. The animals were kept in a vivarium with 5 to a cage in 12/12 hours light regime with light from 08.00 to 20.00 and free access to water and food. The observation chamber was made from white opaque organic glass and measured 48×38×30 cm. Brown glass vials with a diameter of 2.7 cm and a height of 5.5 cm were used as the test objects. 2-3 minutes before introducing an animal, the chamber and test objects were rubbed with 85% alcohol. The animals were always placed in the centre of the chamber.
Dimebon was dissolved in distilled water and administered intragastrically 1 hour before training in a volume of 0.05 ml per 10 g of animal weight. A corresponding volume of solvent was administered to control animals.
On the first day, the mice were brought into the test room and acclimatized for 20-30 minutes. After this, each animal was placed for 10 min. in an empty behavior chamber, which had been pretreated with alcohol, for familiarization. The animal was then replaced in the cage and taken to the vivarium.
On the following day, the same mice were brought into the test room, acclimatized for 20-30 min. and then given dimebon solution intragastrically. One hour after administration of the substance, an animal was placed in the behavior chamber, on the bottom of which two identical objects for recognition (glass vials) were placed on a diagonal at a distance of 14.5 cm from the corners. The training time for each animal was 20 min. After 20 min. it was replaced in the cage and returned to the vivarium.
Testing was performed 48 hours after training. For this purpose, after acclimatization an animal was placed for 1 min. in the chamber for refamiliarization. After a minute it was removed and one object was placed on the bottom of the chamber in a location known to the animal, and the other in a new location. The time spent investigating each object separately over a period of 10 min. was recorded with an accuracy of 0.1 s using two electronic stopwatches. The behavior of the animals was observed through a mirror. Purposeful approach of an animal's nose towards an object at a distance of 2 cm or direct touching of an object with the nose was regarded as a positive investigative reaction.
Since significant variations in object investigation time between animals are observed in this test, we calculated the percent investigation time for each mouse using the formula tNl/(tKl+tNl)×100. The total time spent on investigation of the two objects was taken as 100%. The results were further processed using the Student t-test method.

mice [2] = assay: Acute toxicity on intragastric administration; format: in vivo; conditions: intragastric administration
Procedure: (§1) Investigation of the acute toxicity of Memantine® established that the death of the animals is observed after its intragastric administration in a dose of 300 mg/kg. The LD50 for mice on intragastric administration of Nootropil® (piracetam) is 8000 mg/kg.

mice [3] = conditions: intragastric administration, source not stated; cited from earlier work
[4] = cited from earlier work
AD patients = conditions: 20 mg three times daily; cited from earlier work
[5] = Acute toxicity on intragastric administration; format: in vivo; conditions: mouse, in vivo, po
Procedure: as §1

rats with a model of AD = conditions: cholinergic neurons damaged by chronic AF64A; cited from earlier work
[6] = dose 2.5 mg/kg, testing 48 hours after training
[7] = dose 0.01 mg/kg intragastrically 1 hour before training, testing 48 hours after training
[8] = dose 0.1 mg/kg intragastrically, testing 48 hours after training

CC12CC3CC(C)(C1)CC(N)(C3)C2 [Memantine®, reference compound]
percent of time on investigation of the object in a known location [1, 6]: 40.6±6.9% | percent of time on investigation of the object in a new location [1, 6]: 59.4±6.9% | dose with maximally expressed stimulating/activating effect on memory [1]: 2.5 mg/kg | dose at which death of the animals is observed (mice [2]): 300 mg/kg

NC(=O)CN1CCCC1=O [Nootropil® (piracetam), piracetam]
LD50 (mice [3]): 8000 mg/kg | doses with stimulating effect on learning and memory ([4]; active and passive avoidance conditioned response tests, depending on the test): 200 to 500 mg/kg | maximally effective dose that stimulated learning and memory ([4]; data from the literature): 200 to 500 mg/kg

Cc1ccc2c(c1)c1c(n2CCc2ccc(C)nc2)CCN(C)C1 [dimebon, 2,8-dimethyl-5-[2-(6-methyl-3-pyridyl)ethyl]-2,3,4,5-tetrahydro-1H-pyrido[4,3-b]indole]
stimulating effect on memory, times more active than Nootropil (piracetam) ([1]; compared with literature doses of Nootropil): 2000-5000 times | memory-enhancing activity relative to Memantine (times higher) ([1]; comparing doses with essentially the same effect (0.01 vs 2.5 mg/kg)): 250 times | memory-enhancing activity relative to Memantine (times higher) ([1]; comparing maximally effective doses (0.1 vs 2.5 mg/kg)): 25 times | percent of time on investigation of the object in the known location [1, 7]: 42.5±4.8% | percent of time on investigation of the object in the new location [1, 7]: 57.5±4.8% | percent of time on investigation of the object in the known location [1, 8]: 37.6% | percent of time on investigation of the object in the new location [1, 8]: 62.4±6.5% | activating effect on memory ([1]; dose increased to 0.25 mg/kg): activating effect on memory disappears | dose with maximally expressed stimulating/activating effect on memory [1]: 0.1 mg/kg | stimulating effect on memory, times more active than Memantine ([1]; overall conclusion): 25-250 times | condition of AD patients (memory and cognitive functions) (AD patients): improvement in the condition of AD patients | LD50 [5]: > 1000 mg/kg | results in active avoidance conditioned reflex experiment versus control animals (rats with a model of AD): significantly better results

From patent publication US20100286188A1, “MEANS FOR IMPROVING COGNITIVE FUNCTIONS AND MEMORY BASED ON HYDROGENATED PYRIDO(4,3-B)INDOLES (VARIANTS), PHARMACOLOGICAL MEANS BASED THEREON AND METHOD FOR THE USE THEREOF” (priority 2006, published 2010)
